Columns and labels:
Format in all cases: cell-based
Conditions in all cases: HEK-293T; 1 μM inhibitor, HEK293T cells
CDK16 = CDK16 (Homo sapiens, UniProt Q00536)
Summary of the method: (§1)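 Using transiently transfected HEK293T cells, the inhibitor (1 μM) is tested for displacing Tracer K10 from each expressed kinase after 20 h expression. Luminescence at donor and acceptor wavelengths yields occupancy.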

NLK = NLK (Homo sapiens, UniProt Q9UBE8)
Summary of the method: as §1

MET = MET (Homo sapiens, UniProt P08581)
Summary of the method: as §1

STK35 = STK35 (Homo sapiens, UniProt Q8TDR2)
Summary of the method: as §1

TNNI3K = TNNI3K (Homo sapiens, UniProt Q59H18)
Summary of the method: as §1

AXL = AXL (Homo sapiens, UniProt P30530)
Summary of the method: as §1

RIOK2 = RIOK2 (Homo sapiens, UniProt Q9BVS4)
Summary of the method: as §1

FES = FES (Homo sapiens, UniProt P07332)
Summary of the method: as §1

STK32B = STK32B (Homo sapiens, UniProt Q9NY57)
Summary of the method: as §1

SRMS = SRMS (Homo sapiens, UniProt Q9H3Y6)
Summary of the method: as §1

BRSK1 = BRSK1 (Homo sapiens, UniProt Q8TDC3)
Summary of the method: as §1

NEK2 = NEK2 (Homo sapiens, UniProt P51955)
Summary of the method: as §1

MAST3 = MAST3 (Homo sapiens, UniProt O60307)
Summary of the method: as §1

RON = RON (Homo sapiens, UniProt Q04912)
Summary of the method: as §1

EPHA6 = EPHA6 (Homo sapiens, UniProt Q9UF33)
Summary of the method: as §1

MELK = MELK (Homo sapiens, UniProt Q14680)
Summary of the method: as §1

MAPK8 = MAPK8 (Homo sapiens, UniProt P45983)
Summary of the method: as §1

BTK = target: T1, BTK (Homo sapiens, UniProt Q06187)
T1 construct: full-length LIMK1/2, RIPK1, BTK, and LRRK2 cloned in a frame in a NanoLuc-vector (Promega); host or cells: HEK293T
Summary of the method: as §1

DYRK1A = DYRK1A (Homo sapiens, UniProt Q13627)
Summary of the method: as §1

PHKG1 = PHKG1 (Homo sapiens, UniProt Q16816)
Summary of the method: as §1

WEE1 = WEE1 (Homo sapiens, UniProt P30291)
Summary of the method: as §1

WEE2 = WEE2 (Homo sapiens, UniProt P0C1S8)
Summary of the method: as §1

TEK = TEK (Homo sapiens, UniProt Q02763)
Summary of the method: as §1

CSNK2A1 = CSNK2A1 (Homo sapiens, UniProt P68400)
Summary of the method: as §1

SBK3 = SBK3 (Homo sapiens, UniProt P0C264)
Summary of the method: as §1

PRKACA = PRKACA (Homo sapiens, UniProt P17612)
Summary of the method: as §1

MAPK11 = MAPK11 (Homo sapiens, UniProt Q15759)
Summary of the method: as §1

MAP3K21 = MAP3K21 (Homo sapiens, UniProt Q5TCX8)
Summary of the method: as §1

ULK2 = ULK2 (Homo sapiens, UniProt Q8IYT8)
Summary of the method: as §1

MAP4K2 = MAP4K2 (Homo sapiens, UniProt Q12851)
Summary of the method: as §1

MAP3K9 = MAP3K9 (Homo sapiens, UniProt P80192)
Summary of the method: as §1

RPS6KA1 = RPS6KA1 (Homo sapiens, UniProt Q15418)
Summary of the method: as §1

RPS6KA2 = RPS6KA2 (Homo sapiens, UniProt Q15349)
Summary of the method: as §1

BMP2K = BMP2K (Homo sapiens, UniProt Q9NSY1)
Summary of the method: as §1

CDK2 = CDK2 (Homo sapiens, UniProt P24941)
Summary of the method: as §1

ITK = ITK (Homo sapiens, UniProt Q08881)
Summary of the method: as §1

TNNI3K, sequence (Q59H18 whole entry): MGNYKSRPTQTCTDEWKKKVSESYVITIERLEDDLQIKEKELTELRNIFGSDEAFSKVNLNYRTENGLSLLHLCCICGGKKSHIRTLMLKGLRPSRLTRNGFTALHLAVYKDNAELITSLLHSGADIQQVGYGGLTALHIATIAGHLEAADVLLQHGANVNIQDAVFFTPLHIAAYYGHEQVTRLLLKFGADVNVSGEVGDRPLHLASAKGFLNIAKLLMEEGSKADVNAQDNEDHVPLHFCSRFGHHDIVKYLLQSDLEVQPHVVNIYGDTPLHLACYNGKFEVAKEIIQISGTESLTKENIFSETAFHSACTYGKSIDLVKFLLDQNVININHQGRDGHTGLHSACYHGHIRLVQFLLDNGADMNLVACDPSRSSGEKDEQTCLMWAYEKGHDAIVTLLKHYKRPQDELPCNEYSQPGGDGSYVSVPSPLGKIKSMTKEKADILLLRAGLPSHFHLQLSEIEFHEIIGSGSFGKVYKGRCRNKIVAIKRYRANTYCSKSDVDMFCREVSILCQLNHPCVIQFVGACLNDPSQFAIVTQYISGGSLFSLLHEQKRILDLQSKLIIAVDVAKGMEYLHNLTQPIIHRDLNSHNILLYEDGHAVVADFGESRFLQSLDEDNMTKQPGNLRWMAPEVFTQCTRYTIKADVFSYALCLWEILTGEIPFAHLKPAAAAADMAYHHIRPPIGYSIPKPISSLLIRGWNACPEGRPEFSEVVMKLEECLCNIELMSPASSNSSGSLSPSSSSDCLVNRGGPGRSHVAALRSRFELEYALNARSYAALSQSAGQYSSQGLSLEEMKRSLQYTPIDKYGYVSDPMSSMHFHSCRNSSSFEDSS
BRSK1, sequence (Q8TDC3 whole entry): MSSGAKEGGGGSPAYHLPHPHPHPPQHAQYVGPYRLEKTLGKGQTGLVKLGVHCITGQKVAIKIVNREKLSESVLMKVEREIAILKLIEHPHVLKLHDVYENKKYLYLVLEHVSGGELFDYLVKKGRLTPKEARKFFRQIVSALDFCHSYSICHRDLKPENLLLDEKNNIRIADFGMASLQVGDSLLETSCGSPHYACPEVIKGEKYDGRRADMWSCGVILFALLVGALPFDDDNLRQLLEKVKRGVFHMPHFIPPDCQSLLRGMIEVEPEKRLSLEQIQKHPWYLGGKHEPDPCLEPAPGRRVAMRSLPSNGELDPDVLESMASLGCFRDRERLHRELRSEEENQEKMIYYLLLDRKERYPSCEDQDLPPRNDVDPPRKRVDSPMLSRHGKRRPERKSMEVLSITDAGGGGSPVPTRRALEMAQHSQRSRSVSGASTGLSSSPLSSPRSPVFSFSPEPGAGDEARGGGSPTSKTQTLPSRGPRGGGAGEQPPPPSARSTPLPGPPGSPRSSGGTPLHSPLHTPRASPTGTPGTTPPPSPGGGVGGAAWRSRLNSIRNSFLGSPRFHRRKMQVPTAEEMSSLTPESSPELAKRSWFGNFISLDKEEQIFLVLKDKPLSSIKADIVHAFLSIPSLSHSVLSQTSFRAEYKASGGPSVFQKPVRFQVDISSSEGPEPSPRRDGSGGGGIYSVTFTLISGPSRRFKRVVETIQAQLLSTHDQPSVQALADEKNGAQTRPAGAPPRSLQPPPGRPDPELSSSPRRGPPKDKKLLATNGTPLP
TEK, sequence (Q02763 23-1124): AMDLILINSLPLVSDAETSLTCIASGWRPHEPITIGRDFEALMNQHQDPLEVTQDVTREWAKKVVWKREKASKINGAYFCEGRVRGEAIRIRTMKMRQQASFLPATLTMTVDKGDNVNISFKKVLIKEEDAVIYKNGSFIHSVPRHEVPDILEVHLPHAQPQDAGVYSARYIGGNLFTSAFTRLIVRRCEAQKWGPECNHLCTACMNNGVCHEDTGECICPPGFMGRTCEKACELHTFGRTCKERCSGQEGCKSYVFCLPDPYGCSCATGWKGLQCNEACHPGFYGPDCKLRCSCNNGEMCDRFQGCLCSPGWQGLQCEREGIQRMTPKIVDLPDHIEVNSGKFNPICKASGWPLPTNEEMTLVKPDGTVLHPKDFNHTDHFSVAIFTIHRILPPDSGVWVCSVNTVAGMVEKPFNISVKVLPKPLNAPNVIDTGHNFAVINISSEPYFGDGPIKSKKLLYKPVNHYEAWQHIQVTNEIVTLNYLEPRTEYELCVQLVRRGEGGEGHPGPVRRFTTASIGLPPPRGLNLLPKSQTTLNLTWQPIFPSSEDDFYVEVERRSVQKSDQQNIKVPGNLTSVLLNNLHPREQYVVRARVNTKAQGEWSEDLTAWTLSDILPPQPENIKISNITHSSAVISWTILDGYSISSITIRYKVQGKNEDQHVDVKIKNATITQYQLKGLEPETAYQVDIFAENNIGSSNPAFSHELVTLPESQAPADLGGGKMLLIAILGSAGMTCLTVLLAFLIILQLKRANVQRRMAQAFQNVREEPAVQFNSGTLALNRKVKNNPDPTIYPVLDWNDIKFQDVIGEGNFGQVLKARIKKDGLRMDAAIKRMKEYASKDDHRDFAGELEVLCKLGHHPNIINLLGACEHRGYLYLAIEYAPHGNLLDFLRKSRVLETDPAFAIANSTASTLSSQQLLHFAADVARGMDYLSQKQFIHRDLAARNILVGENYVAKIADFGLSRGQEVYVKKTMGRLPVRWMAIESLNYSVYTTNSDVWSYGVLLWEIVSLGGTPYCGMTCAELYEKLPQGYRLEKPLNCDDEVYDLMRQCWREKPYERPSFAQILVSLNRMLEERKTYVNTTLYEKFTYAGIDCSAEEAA
RPS6KA1, sequence (Q15418 whole entry): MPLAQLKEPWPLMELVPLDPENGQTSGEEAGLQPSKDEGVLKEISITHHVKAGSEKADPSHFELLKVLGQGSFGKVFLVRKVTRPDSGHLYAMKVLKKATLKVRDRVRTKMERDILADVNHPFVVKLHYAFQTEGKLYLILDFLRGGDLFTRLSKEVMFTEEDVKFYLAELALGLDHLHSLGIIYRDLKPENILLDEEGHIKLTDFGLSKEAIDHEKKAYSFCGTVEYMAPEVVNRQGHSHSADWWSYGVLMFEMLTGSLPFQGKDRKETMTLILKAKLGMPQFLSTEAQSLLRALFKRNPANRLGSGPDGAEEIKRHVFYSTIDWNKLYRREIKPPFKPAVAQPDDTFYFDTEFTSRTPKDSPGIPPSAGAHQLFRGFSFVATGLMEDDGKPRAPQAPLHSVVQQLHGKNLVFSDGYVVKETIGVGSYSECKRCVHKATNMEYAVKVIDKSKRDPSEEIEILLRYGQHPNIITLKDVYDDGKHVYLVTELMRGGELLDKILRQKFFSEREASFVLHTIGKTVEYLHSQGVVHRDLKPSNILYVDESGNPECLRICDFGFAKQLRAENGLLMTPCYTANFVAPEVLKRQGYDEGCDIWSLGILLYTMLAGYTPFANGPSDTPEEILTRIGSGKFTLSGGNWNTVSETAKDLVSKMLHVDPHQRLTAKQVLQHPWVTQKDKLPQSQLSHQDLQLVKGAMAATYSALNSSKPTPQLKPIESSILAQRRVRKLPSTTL
CDK16, sequence (Q00536 whole entry): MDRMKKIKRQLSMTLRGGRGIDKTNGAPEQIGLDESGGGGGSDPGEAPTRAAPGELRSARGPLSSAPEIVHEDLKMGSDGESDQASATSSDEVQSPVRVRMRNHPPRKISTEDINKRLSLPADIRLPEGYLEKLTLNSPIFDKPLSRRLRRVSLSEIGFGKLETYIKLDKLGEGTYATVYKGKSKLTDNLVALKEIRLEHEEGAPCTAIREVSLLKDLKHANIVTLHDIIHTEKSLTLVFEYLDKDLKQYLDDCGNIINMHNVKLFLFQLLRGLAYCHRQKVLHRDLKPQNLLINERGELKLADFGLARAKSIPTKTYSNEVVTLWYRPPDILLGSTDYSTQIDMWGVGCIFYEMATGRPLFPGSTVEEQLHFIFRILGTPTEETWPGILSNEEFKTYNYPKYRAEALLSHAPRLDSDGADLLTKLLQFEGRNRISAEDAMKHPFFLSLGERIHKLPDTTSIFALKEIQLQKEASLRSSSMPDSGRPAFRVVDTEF
CDK16, sequence (Q8ND76 whole entry, further chain): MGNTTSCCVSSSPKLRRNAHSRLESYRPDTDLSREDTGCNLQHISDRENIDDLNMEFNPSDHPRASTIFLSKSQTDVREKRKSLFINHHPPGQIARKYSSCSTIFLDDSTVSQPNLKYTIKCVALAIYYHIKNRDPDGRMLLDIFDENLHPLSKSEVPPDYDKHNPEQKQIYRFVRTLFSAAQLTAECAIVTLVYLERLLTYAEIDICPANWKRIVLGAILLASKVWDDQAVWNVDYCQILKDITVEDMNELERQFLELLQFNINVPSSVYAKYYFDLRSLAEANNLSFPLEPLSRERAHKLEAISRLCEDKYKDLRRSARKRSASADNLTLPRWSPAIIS
STK32B, sequence (Q9NY57 whole entry): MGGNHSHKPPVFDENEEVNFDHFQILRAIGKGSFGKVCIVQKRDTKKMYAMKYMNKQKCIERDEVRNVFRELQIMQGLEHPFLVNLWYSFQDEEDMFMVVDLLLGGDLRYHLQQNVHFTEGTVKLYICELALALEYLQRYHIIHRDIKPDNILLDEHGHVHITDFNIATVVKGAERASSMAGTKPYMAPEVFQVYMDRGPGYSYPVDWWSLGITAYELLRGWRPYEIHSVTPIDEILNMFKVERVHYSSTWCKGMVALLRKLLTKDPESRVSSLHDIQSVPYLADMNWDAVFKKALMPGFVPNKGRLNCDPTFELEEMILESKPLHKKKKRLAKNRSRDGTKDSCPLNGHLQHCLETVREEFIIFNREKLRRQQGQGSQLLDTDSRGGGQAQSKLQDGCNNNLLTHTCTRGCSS

## CN1C(=O)[C@@H](N2CCc3c(nn(Cc4ccccc4)c3C(N)=O)C2=O)COc2cc(Cl)ccc21 [Compound 10, (S)-2-benzyl-6-(8-chloro-5-methyl-4-oxo-2,3,4,5-tetrahydrobenzo[b][1,4]oxazepin-3-yl)-7-oxo-4,5,6,7-tetrahydro-2H-pyrazolo[3,4-c]pyridine-3-carboxamide]
CDK16
  receptor occupancy at 1 µM: -2.19%
NLK
  receptor occupancy at 1 µM: 5.94%
MET
  receptor occupancy at 1 µM: 4.93%
STK35
  receptor occupancy at 1 µM: 1.56%
TNNI3K
  receptor occupancy at 1 µM: -0.0649%
AXL
  receptor occupancy at 1 µM: 2.28%
RIOK2
  receptor occupancy at 1 µM: -2.88%
FES
  receptor occupancy at 1 µM: 3.15%
STK32B
  receptor occupancy at 1 µM: -4.21%
SRMS
  receptor occupancy at 1 µM: 10.1%
BRSK1
  receptor occupancy at 1 µM: 3.37%
NEK2
  receptor occupancy at 1 µM: -8.89%
MAST3
  receptor occupancy at 1 µM: 3.64%
RON
  receptor occupancy at 1 µM: 0.288%
EPHA6
  receptor occupancy at 1 µM: -0.834%
MELK
  receptor occupancy at 1 µM: 13.7%
MAPK8
  receptor occupancy at 1 µM: -11.5%
BTK
  receptor occupancy at 1 µM: -8.22%
DYRK1A
  receptor occupancy at 1 µM: -1.01%
PHKG1
  receptor occupancy at 1 µM: -0.896%
WEE1
  receptor occupancy at 1 µM: -7.33%
WEE2
  receptor occupancy at 1 µM: -0.12%
TEK
  receptor occupancy at 1 µM: 9.13%
CSNK2A1
  receptor occupancy at 1 µM: 3.96%
SBK3
  receptor occupancy at 1 µM: -4.46%
PRKACA
  receptor occupancy at 1 µM: -2.16%
MAPK11
  receptor occupancy at 1 µM: -1.99%
MAP3K21
  receptor occupancy at 1 µM: -2.72%
ULK2
  receptor occupancy at 1 µM: 2.12%
MAP4K2
  receptor occupancy at 1 µM: -0.43%
MAP3K9
  receptor occupancy at 1 µM: 8.3%
RPS6KA1
  receptor occupancy at 1 µM: 5.2%
RPS6KA2
  receptor occupancy at 1 µM: -4.28%
BMP2K
  receptor occupancy at 1 µM: -6.67%
CDK2
  receptor occupancy at 1 µM: 6.33%
ITK
  receptor occupancy at 1 µM: 2.24%
